In ChEMBL document CHEMBL1201862, “PubChem BioAssay data set” (2004):
Values joined by “and” are separate entries in the source; they are usually repeats but may differ in a detail not shown here. Equal entries are not always repeated.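 48-hour exposure; five concentrations; linearly interpolated endpoints. Abbreviation: GI50, concentration required for 50% inhibition of growth.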 Active and inactive are the calls of the source. No stated cut-off is given here; in the data, active = GI50 up to about 1.1 µM and inactive = higher.

Legend:
Assay in all cases: NCI tumour cell line growth inhibition, 48 h
786-0 = system: 786-0
A549 = system: A549
ACHN = system: ACHN
CCRF-CEM = system: CCRF-CEM
COLO 205 = system: COLO 205
DU-145 = system: DU-145
HCC 2998 = system: HCC 2998
HCT-116 = system: HCT-116
HCT-15 = system: HCT-15
HL-60 = system: HL-60
HOP-62 = system: HOP-62
HOP-92 = system: HOP-92
HT-29 = system: HT-29
Hs-578T = system: Hs-578T
IGROV-1 = system: IGROV-1
K562 = system: K562
KM12 = system: KM12
LOX IMVI = system: LOX IMVI
M14 = system: M14
MCF7 = system: MCF7
MDA-MB-231 = system: MDA-MB-231
MDA-MB-435 = system: MDA-MB-435
MDA-N = system: MDA-N
MOLT-4 = system: MOLT-4
Malme-3M = system: Malme-3M
NCI-H226 = system: NCI-H226
NCI-H23 = system: NCI-H23
NCI-H460 = system: NCI-H460
NCI-H522 = system: NCI-H522
NCI/ADR-RES = system: NCI/ADR-RES
OVCAR-3 = system: OVCAR-3
OVCAR-4 = system: OVCAR-4
OVCAR-5 = system: OVCAR-5
OVCAR-8 = system: OVCAR-8
PC-3 = system: PC-3
RPMI-8226 = system: RPMI-8226
RXF 393 = system: RXF 393
SF-268 = system: SF-268
SF-295 = system: SF-295
SF-539 = system: SF-539
SK-MEL-28 = system: SK-MEL-28
SK-MEL-2 = system: SK-MEL-2
SK-MEL-5 = system: SK-MEL-5
SK-OV-3 = system: SK-OV-3
SN12C = system: SN12C
SNB-19 = system: SNB-19
SNB-75 = system: SNB-75
SR = system: SR
SW-620 = system: SW-620
T47D = system: T47D
TK-10 = system: TK-10
U-251 = system: U-251
UACC-257 = system: UACC-257
UO-31 = system: UO-31
A498 = system: A498
CAKI-1 = system: CAKI-1
EKVX = system: EKVX
UACC-62 = system: UACC-62

Question: Which results are given for CCOC(=O)Cn1c(=O)c2nc(SC)sc2n(CC)c1=S?
Answer: GI50 (786-0): 0.173 µM (active); GI50 (A549): > 100 µM (inactive); GI50 (ACHN): > 100 µM (inactive); GI50 (CCRF-CEM): > 100 µM (inactive); GI50 (COLO 205): > 100 µM (inactive); GI50 (DU-145): > 100 µM (inactive); GI50 (HCC 2998): > 100 µM (inactive); GI50 (HCT-116): > 100 µM (inactive); GI50 (HCT-15): 65.5 µM; GI50 (HL-60): > 100 µM (inactive); GI50 (HOP-62): > 100 µM (inactive); GI50 (HOP-92): 82.6 µM (inactive); GI50 (HT-29): > 100 µM (inactive); GI50 (Hs-578T): 22.1 µM (inactive); GI50 (IGROV-1): 94 µM (inactive); GI50 (K562): > 100 µM (inactive); GI50 (KM12): > 100 µM (inactive); GI50 (LOX IMVI): > 100 µM (inactive); GI50 (M14): 5.78 µM (inactive); GI50 (MCF7): > 100 µM (inactive); GI50 (MDA-MB-231): > 100 µM (inactive); GI50 (MDA-MB-435): 1.71 µM (inactive); GI50 (MDA-N): > 100 µM (inactive); GI50 (MOLT-4): > 100 µM (inactive); GI50 (Malme-3M): > 100 µM (inactive); GI50 (NCI-H226): > 100 µM (inactive); GI50 (NCI-H23): > 100 µM (inactive); GI50 (NCI-H460): > 100 µM (inactive); GI50 (NCI-H522): > 100 µM (inactive); GI50 (NCI/ADR-RES): > 100 µM (inactive); GI50 (OVCAR-3): > 100 µM (inactive); GI50 (OVCAR-4): 59.8 µM (inactive); GI50 (OVCAR-5): > 100 µM (inactive); GI50 (OVCAR-8): > 100 µM (inactive); GI50 (PC-3): > 100 µM (inactive); GI50 (RPMI-8226): > 100 µM (inactive); GI50 (RXF 393): 36.8 µM (inactive); GI50 (SF-268): > 100 µM (inactive); GI50 (SF-295): > 100 µM (inactive); GI50 (SF-539): > 100 µM (inactive); GI50 (SK-MEL-28): > 100 µM (inactive); GI50 (SK-MEL-2): > 100 µM (inactive); GI50 (SK-MEL-5): > 100 µM (inactive); GI50 (SK-OV-3): > 100 µM (inactive); GI50 (SN12C): > 100 µM (inactive); GI50 (SNB-19): > 100 µM (inactive); GI50 (SNB-75): 9.38 µM (inactive); GI50 (SR): > 100 µM (inactive); GI50 (SW-620): > 100 µM (inactive); GI50 (T47D): 61 µM (inactive); GI50 (TK-10): > 100 µM (inactive); GI50 (U-251): > 100 µM (inactive); GI50 (UACC-257): > 100 µM (inactive); GI50 (UO-31): 14.2 µM (inactive)

Question: COC12C=CC(CC1)C(C)(C)C2O (stereo not drawn) was tested. Which GI50 (SNB-75) did it give?
Answer: 87.5 µM (inactive) and 52.7 µM (inactive)

Question: How did the GI50 (786-0) turn out when C(=N\c1ccc(-c2cc(-c3ccccc3)nc3ccc4ccccc4c23)cc1)/c1ccccc1 was run?
Answer: 19.5 µM (inactive)

Question: What about the GI50 (A498) of the same compound?
Answer: 26.7 µM (inactive)

Question: What about the GI50 (A549) of the same compound?
Answer: 13.6 µM (inactive)

Question: What about the GI50 (ACHN) of the same compound?
Answer: 34.6 µM (inactive)

Question: What about the GI50 (CAKI-1) of the same compound?
Answer: 23.3 µM (inactive)

Question: What about the GI50 (CCRF-CEM) of the same compound?
Answer: 16 µM (inactive)

Question: What about the GI50 (COLO 205) of the same compound?
Answer: 13.6 µM (inactive)

Question: And the GI50 (DU-145)?
Answer: 20.7 µM (inactive)

Question: And the GI50 (EKVX)?
Answer: 18.1 µM (inactive)

Question: What about the GI50 (HCC 2998) of the same compound?
Answer: 11.4 µM (inactive)

Question: What about the GI50 (HCT-116) of the same compound?
Answer: 16.6 µM (inactive)

Question: What about the GI50 (HCT-15) of the same compound?
Answer: 8.26 µM

Question: And the GI50 (HL-60)?
Answer: 9.48 µM (inactive)

Question: And the GI50 (HOP-62)?
Answer: 20.9 µM (inactive)

Question: And the GI50 (HT-29)?
Answer: 7.87 µM (inactive)

Question: What about the GI50 (Hs-578T) of the same compound?
Answer: 5.86 µM (inactive)

Question: What about the GI50 (IGROV-1) of the same compound?
Answer: 37.3 µM (inactive)

Question: And the GI50 (K562)?
Answer: 4.79 µM (inactive)

Question: And the GI50 (KM12)?
Answer: 10.8 µM (inactive)

Question: What about the GI50 (LOX IMVI) of the same compound?
Answer: 19.9 µM (inactive)

Question: And the GI50 (M14)?
Answer: 18.1 µM (inactive)

Question: And the GI50 (MCF7)?
Answer: 9.25 µM (inactive)

Question: What about the GI50 (MDA-MB-231) of the same compound?
Answer: 11.2 µM (inactive)

Question: What about the GI50 (MDA-MB-435) of the same compound?
Answer: 21.2 µM (inactive)

Question: What about the GI50 (MDA-N) of the same compound?
Answer: 24.4 µM (inactive)

Question: What about the GI50 (MOLT-4) of the same compound?
Answer: 18.6 µM (inactive)

Question: What about the GI50 (Malme-3M) of the same compound?
Answer: 30.5 µM (inactive)

Question: And the GI50 (NCI-H226)?
Answer: 22.3 µM (inactive)

Question: And the GI50 (NCI-H23)?
Answer: 27.6 µM (inactive)

Question: And the GI50 (NCI-H460)?
Answer: 19.9 µM (inactive)

Question: What about the GI50 (NCI/ADR-RES) of the same compound?
Answer: 28.5 µM (inactive)

Question: And the GI50 (OVCAR-3)?
Answer: 20.4 µM (inactive)

Question: And the GI50 (OVCAR-4)?
Answer: 2.39 µM (inactive)

Question: And the GI50 (OVCAR-5)?
Answer: 56.1 µM (inactive)

Question: And the GI50 (OVCAR-8)?
Answer: 26 µM (inactive)

Question: And the GI50 (PC-3)?
Answer: 13.2 µM (inactive)

Question: And the GI50 (RPMI-8226)?
Answer: 15.6 µM (inactive)

Question: And the GI50 (RXF 393)?
Answer: 9.68 µM (inactive)

Question: And the GI50 (SF-268)?
Answer: 7.48 µM (inactive)

Question: What about the GI50 (SF-295) of the same compound?
Answer: 10.9 µM (inactive)

Question: And the GI50 (SF-539)?
Answer: 16.5 µM (inactive)

Question: What about the GI50 (SK-MEL-28) of the same compound?
Answer: 14.1 µM (inactive)

Question: And the GI50 (SK-MEL-5)?
Answer: 17.4 µM (inactive)

Question: And the GI50 (SK-OV-3)?
Answer: 30.3 µM (inactive)

Question: What about the GI50 (SN12C) of the same compound?
Answer: 8.39 µM (inactive)

Question: And the GI50 (SNB-19)?
Answer: 18.5 µM (inactive)

Question: What about the GI50 (SNB-75) of the same compound?
Answer: 1.18 µM (inactive)

Question: What about the GI50 (SR) of the same compound?
Answer: 10.2 µM (inactive)

Question: What about the GI50 (SW-620) of the same compound?
Answer: 26.2 µM (inactive)

Question: And the GI50 (TK-10)?
Answer: 22.3 µM (inactive)

Question: And the GI50 (U-251)?
Answer: 36.5 µM (inactive)

Question: And the GI50 (UACC-257)?
Answer: 23.5 µM (inactive)

Question: And the GI50 (UACC-62)?
Answer: 20.8 µM (inactive)

Question: What about the GI50 (UO-31) of the same compound?
Answer: 15.9 µM (inactive)

Question: What does the source list for O=P(O)(O)OC1C(OP(=O)(O)O)C(OP(=O)(O)O)C(OP(=O)(O)O)C(OP(=O)(O)O)C1OP(=O)(O)O (stereo not drawn)?
Answer: GI50 (CCRF-CEM): > 995 µM (inactive); GI50 (EKVX): > 560 µM (inactive); GI50 (HOP-92): > 923 µM (inactive); GI50 (OVCAR-4): > 875 µM (inactive)
